Experimental data reported in ChEMBL document CHEMBL1201862, “PubChem BioAssay data set” (2004).
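Step 1: Grow cells in 96-well plates. Step 2: Expose to compound for 48 hours at 5 concentrations. Step 3: Interpolate endpoints linearly; if unreached, use highest concentration. GI50: concentration for 50% inhibition of growth.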 Calls of active or inactive are those of the source. Rule as the data show it: active = GI50 up to about 1.1 µM and inactive = higher.

Assays:
Test in all cases: NCI tumour cell line growth inhibition, 48 h
[1] = system: HOP-92
[2] = system: OVCAR-3
[3] = system: A498
[4] = system: NCI-H23
[5] = system: COLO 205
[6] = system: Hs-578T
[7] = system: M14
[8] = system: UO-31
[9] = system: SW-620
[10] = system: OVCAR-8
[11] = system: OVCAR-4
[12] = system: SR
[13] = system: HCC 2998
[14] = system: NCI-H522
[15] = system: SF-539
[16] = system: TK-10
[17] = system: MDA-MB-435
[18] = system: HL-60
[19] = system: SN12C
[20] = system: HCT-116
[21] = system: NCI-H226
[22] = system: IGROV-1
[23] = system: MOLT-4
[24] = system: SF-295
[25] = system: SK-OV-3
[26] = system: MCF7
[27] = system: SK-MEL-5
[28] = system: SNB-19
[29] = system: EKVX
[30] = system: CCRF-CEM
[31] = system: BT-549
[32] = system: NCI-H460
[33] = system: SNB-75
[34] = system: HCT-15
[35] = system: MDA-MB-231
[36] = system: DU-145
[37] = system: PC-3
[38] = system: RPMI-8226
[39] = system: A549
[40] = system: RXF 393
[41] = system: K562
[42] = system: T47D
[43] = system: ACHN
[44] = system: SF-268
[45] = system: NCI/ADR-RES
[46] = system: KM12
[47] = system: UACC-257
[48] = system: SK-MEL-28
[49] = system: U-251
[50] = system: LOX IMVI
[51] = system: OVCAR-5
[52] = system: CAKI-1
[53] = system: HOP-62
[54] = system: UACC-62
[55] = system: SK-MEL-2
[56] = system: MDA-N
[57] = system: 786-0
[58] = system: HT-29
[59] = system: Malme-3M

Which results are given for `O=[N+]([O-])C1=Cc2c(O)ccc(O)c2C2c3ccccc3NC12` (centres undefined)?
GI50 [1]: 7.28 µM (inactive); GI50 [2]: 5.81 µM (inactive); GI50 [3]: 14.7 µM (inactive); GI50 [4]: 4.24 µM (inactive); GI50 [5]: 11.6 µM (inactive); GI50 [6]: 26.1 µM (inactive); GI50 [7]: 13.2 µM (inactive); GI50 [8]: 5.33 µM (inactive); GI50 [9]: 9.1 µM (inactive); GI50 [10]: 5.82 µM (inactive); GI50 [11]: 16 µM (inactive); GI50 [12]: 13.5 µM (inactive); GI50 [13]: 7.52 µM (inactive); GI50 [14]: 2.45 µM (inactive); GI50 [15]: 30.9 µM (inactive); GI50 [16]: 16.1 µM (inactive); GI50 [17]: 14.7 µM (inactive); GI50 [18]: 5.85 µM (inactive); GI50 [19]: 16.7 µM (inactive); GI50 [20]: 9.16 µM (inactive); GI50 [21]: 61.2 µM (inactive); GI50 [22]: 13.5 µM (inactive); GI50 [23]: 3.18 µM (inactive); GI50 [24]: 13.2 µM (inactive); GI50 [25]: 29 µM (inactive); GI50 [26]: 2.71 µM (inactive); GI50 [27]: 12.8 µM (inactive); GI50 [28]: 12.2 µM (inactive); GI50 [29]: 14.8 µM (inactive); GI50 [30]: 3.88 µM (inactive); GI50 [31]: 12.3 µM (inactive); GI50 [32]: 12.8 µM (inactive); GI50 [33]: 22.4 µM (inactive); GI50 [34]: 13 µM; GI50 [35]: 13.6 µM (inactive); GI50 [36]: 24.7 µM (inactive); GI50 [37]: 6.3 µM (inactive); GI50 [38]: 10.4 µM (inactive); GI50 [39]: 17.3 µM (inactive); GI50 [40]: 13.2 µM (inactive); GI50 [41]: 9.27 µM (inactive); GI50 [42]: 7.03 µM (inactive); GI50 [43]: 5.83 µM (inactive); GI50 [44]: 16.7 µM (inactive); GI50 [45]: 7.43 µM (inactive); GI50 [46]: 9.04 µM (inactive); GI50 [47]: 13.9 µM (inactive); GI50 [48]: 18.5 µM (inactive); GI50 [49]: 12.9 µM (inactive); GI50 [50]: 14 µM (inactive); GI50 [51]: 16.1 µM (inactive); GI50 [52]: 4.36 µM (inactive); GI50 [53]: 11.3 µM (inactive); GI50 [54]: 6.32 µM (inactive); GI50 [55]: 16.9 µM (inactive); GI50 [56]: 18.3 µM (inactive); GI50 [57]: 12.1 µM (inactive); GI50 [58]: 9.02 µM (inactive)

`COC(=O)C1CN=CN1CCc1ccccc1` (centres undefined) was tested. Which GI50 [1] did it give?
Its GI50 is > 100 µM (inactive).

What about the GI50 [2] of the same compound?
Its GI50 is > 100 µM (inactive).

And the GI50 [3]?
The GI50 was > 100 µM (inactive).

And the GI50 [4]?
Its GI50 is > 100 µM (inactive).

And the GI50 [5]?
Its GI50 is > 100 µM (inactive).

What about the GI50 [6] of the same compound?
The GI50 was > 100 µM (inactive).

And the GI50 [7]?
Its GI50 is > 100 µM (inactive).

What about the GI50 [8] of the same compound?
Its GI50 is > 100 µM (inactive).

What about the GI50 [9] of the same compound?
Its GI50 is > 100 µM (inactive).

And the GI50 [10]?
Its GI50 is > 100 µM (inactive).

What about the GI50 [11] of the same compound?
The GI50 was > 100 µM (inactive).

What about the GI50 [12] of the same compound?
The GI50 was > 100 µM (inactive).

What about the GI50 [13] of the same compound?
The GI50 was > 100 µM (inactive).

What about the GI50 [14] of the same compound?
The GI50 was > 100 µM (inactive).

What about the GI50 [15] of the same compound?
The GI50 was > 100 µM (inactive).

What about the GI50 [16] of the same compound?
The GI50 was > 100 µM (inactive).

And the GI50 [17]?
Its GI50 is > 100 µM (inactive).

What about the GI50 [18] of the same compound?
Its GI50 is > 100 µM (inactive).

And the GI50 [20]?
Its GI50 is > 100 µM (inactive).

And the GI50 [21]?
The GI50 was > 100 µM (inactive).

What about the GI50 [22] of the same compound?
The GI50 was > 100 µM (inactive).

And the GI50 [23]?
Its GI50 is > 100 µM (inactive).

What about the GI50 [24] of the same compound?
Its GI50 is > 100 µM (inactive).

What about the GI50 [25] of the same compound?
Its GI50 is > 100 µM (inactive).

What about the GI50 [26] of the same compound?
Its GI50 is > 100 µM (inactive).

What about the GI50 [27] of the same compound?
Its GI50 is > 100 µM (inactive).

And the GI50 [28]?
Its GI50 is > 100 µM (inactive).

What about the GI50 [29] of the same compound?
Its GI50 is > 100 µM (inactive).

What about the GI50 [30] of the same compound?
Its GI50 is > 100 µM (inactive).

What about the GI50 [31] of the same compound?
Its GI50 is > 100 µM (inactive).

And the GI50 [59]?
The GI50 was > 100 µM (inactive).

And the GI50 [32]?
Its GI50 is > 100 µM (inactive).

What about the GI50 [33] of the same compound?
Its GI50 is 15.5 µM (inactive).

And the GI50 [34]?
Its GI50 is greater than 100 µM.

What about the GI50 [35] of the same compound?
The GI50 was > 100 µM (inactive).

And the GI50 [36]?
Its GI50 is > 100 µM (inactive).

And the GI50 [37]?
The GI50 was > 100 µM (inactive).

And the GI50 [38]?
The GI50 was > 100 µM (inactive).

And the GI50 [39]?
The GI50 was > 100 µM (inactive).

What about the GI50 [40] of the same compound?
Its GI50 is > 100 µM (inactive).

What about the GI50 [41] of the same compound?
Its GI50 is > 100 µM (inactive).

And the GI50 [42]?
Its GI50 is > 100 µM (inactive).

What about the GI50 [43] of the same compound?
Its GI50 is > 100 µM (inactive).

And the GI50 [45]?
The GI50 was > 100 µM (inactive).

And the GI50 [46]?
Its GI50 is > 100 µM (inactive).

What about the GI50 [47] of the same compound?
The GI50 was > 100 µM (inactive).

And the GI50 [48]?
Its GI50 is > 100 µM (inactive).

What about the GI50 [49] of the same compound?
The GI50 was > 100 µM (inactive).

What about the GI50 [50] of the same compound?
The GI50 was > 100 µM (inactive).

What about the GI50 [51] of the same compound?
Its GI50 is > 100 µM (inactive).

And the GI50 [52]?
Its GI50 is > 100 µM (inactive).

What about the GI50 [54] of the same compound?
The GI50 was > 100 µM (inactive).

What about the GI50 [55] of the same compound?
The GI50 was > 100 µM (inactive).

And the GI50 [56]?
The GI50 was > 100 µM (inactive).

What about the GI50 [57] of the same compound?
The GI50 was > 100 µM (inactive).

And the GI50 [58]?
The GI50 was > 100 µM (inactive).
